Read-outs that look alike come from different tables or passages of the source.

One assay addresses T1, human D3 receptor (Homo sapiens, UniProt P35462).
T1 construct: expressed in transfected cells; host or cells: HEK 293 cells, stably transfected (Watts and colleagues, Oregon Health Sciences University); membranes prepared from the cells
As to the kind of experiment: [3H]spiperone binding to cloned human D3 receptors in HEK 293 cell membranes. The settings on record: for D3 receptor activity compared with control, in words: displacing [3H]spiperone from D3 receptors in HEK cells, racemic compounds versus (+)-7-OH-DPAT; for D2L/D3L: ratio of Ki D2L to Ki D3; for Differential activity (D2L/D3) compared with control, in words: versus (+)-7-OH-DPAT control. Here is the method: (§1) The target compounds synthesized were assayed for differential CNS activity by binding studies employing cloned human receptors expressed in HEK cells. […] The compounds were evaluated for their binding at the D2 and D3 receptors.
(§2) Binding affinities of these novel compounds were assessed according to previously published procedures. V. J. Watts et al., EUR. J. PHARMACOL., 1993, 239,271; V. J. Watts et al., EUR. J. PHARMACOL., 1996, 50, 966. Human embryonic kidney (HEK) 293 cells were stably transfected with cDNA for the human D2L and D3 receptors by Watts and colleagues at Oregon Health Sciences University in accordance with published procedures; V. J. Watts, MOL. PHARMACOL, op. cit., and graciously shipped to the University of Illinois for receptor binding assays. Membranes were prepared from the cells as described previously, V. J. Watts et al., EUR. J. PHARMACOL., 1993, op. cit. […] (+)-Butaclamol (2 ,μM) was used to define nonspecific binding. Assays were terminated with a 24-pin Brandel harvester as described previously, M. E. A. Reith et al., BIOL. CHEM. 1986, 261, 7300. IC50 values were estimated by nonlinear regression analysis with the ALLFIT equation, and converted to inhibition constants (Ki) by the Cheng-Prusoff equation as in previous work, Reith et al., J. BIOL. CHEM., op. cit.

A further assay addresses T2, human D2L receptor (Homo sapiens, UniProt P14416).
T2 construct: expressed in transfected cells; host or cells: HEK 293 cells, stably transfected (Watts and colleagues, Oregon Health Sciences University); membranes prepared from the cells
Briefly: [3H]spiperone binding to cloned human D2L receptors in HEK 293 cell membranes. Here is the method:
as §1, §2

Where [1] appears, read: cloned human D2L in HEK cells, 0.4 nM [3H]spiperone, 1 h, 30° C., no GTP, mean ± spread (n).

T1 sequence (P35462 whole entry): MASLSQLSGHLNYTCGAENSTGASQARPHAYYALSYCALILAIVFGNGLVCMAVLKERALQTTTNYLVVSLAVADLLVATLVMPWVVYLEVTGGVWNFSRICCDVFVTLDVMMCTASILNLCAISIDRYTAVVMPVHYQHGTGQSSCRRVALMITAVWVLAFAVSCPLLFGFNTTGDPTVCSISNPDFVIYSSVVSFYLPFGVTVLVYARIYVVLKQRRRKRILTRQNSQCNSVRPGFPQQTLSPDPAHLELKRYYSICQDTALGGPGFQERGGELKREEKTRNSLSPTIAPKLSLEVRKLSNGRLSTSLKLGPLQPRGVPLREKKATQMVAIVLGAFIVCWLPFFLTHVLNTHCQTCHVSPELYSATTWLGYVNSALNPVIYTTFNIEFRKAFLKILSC
T2 sequence (P14416 whole entry): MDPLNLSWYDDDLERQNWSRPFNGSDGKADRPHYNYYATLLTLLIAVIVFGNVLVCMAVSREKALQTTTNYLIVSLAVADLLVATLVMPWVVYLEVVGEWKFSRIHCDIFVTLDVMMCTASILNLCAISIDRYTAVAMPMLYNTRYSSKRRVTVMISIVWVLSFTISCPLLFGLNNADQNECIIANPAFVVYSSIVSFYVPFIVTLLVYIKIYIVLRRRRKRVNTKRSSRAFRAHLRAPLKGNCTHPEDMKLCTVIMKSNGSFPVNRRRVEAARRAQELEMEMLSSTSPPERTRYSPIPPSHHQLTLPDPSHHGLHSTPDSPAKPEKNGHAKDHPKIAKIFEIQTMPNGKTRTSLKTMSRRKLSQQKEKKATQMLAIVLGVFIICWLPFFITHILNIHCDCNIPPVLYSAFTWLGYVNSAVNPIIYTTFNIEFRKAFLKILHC

By Ki is commonly meant a measure of affinity in units of concentration, obtained from inhibition or displacement. `C#CCN(CCCC)C1CCc2ccc(O)cc2C1` (racemic) [Example 4, (R,S)-trans-7-Hydroxy-2-[N-propynyl-N-(butyl-amino]tetralin]: on human D3 receptor, affinity was put at a Ki of 0.0049 ± 0.0012 µM; the “D3 receptor activity compared with control, in words” value is “about as active as the (+) isomer”; the D2L/D3L was 108; the “Differential activity (D2L/D3) compared with control, in words” value (“Differential activity (D2L/D3)” for short) is “slightly greater activity differential”. This compound displayed a Ki on human D2L receptor (setting [1]) of 0.534 ± 0.072 µM.

With `C#CCN(CC)C1CCc2ccc(O)cc2C1` (racemic) [Example 5, (R,S)-trans-7-Hydroxy-2-[N-propynyl-N-ethyl-amino]tetralin], on human D3 receptor, the Ki is 0.0138 ± 0.0028 µM; the “D3 receptor activity compared with control, in words” value is “high activity, though not as high as the compound of Example 4 or the control”; the D2L/D3L was found to be 108; the “Differential activity (D2L/D3)” value is “as high as the compound of Example 4”. The Ki at human D2L receptor (setting [1]) turned out to be 1.49 µM.

Take `C#CCN(CCc1ccc(F)cc1)C1CCc2ccc(O)cc2C1` (racemic) [Example 6, (R,S)-trans-7-Hydroxy-2-[N-propynyl-N-ethyl(4′-fluorophenyl)amino]tetralin]: on human D3 receptor, the affinity, expressed as Ki, was 0.0145 ± 0.0041 µM; the D2L/D3L stood at 111; the “Differential activity (D2L/D3)” value is on record as “about the same as the control”. Besides, the affinity on human D2L receptor (setting [1]), expressed as Ki, was 1.61 µM.

Regarding `C#CCN(CCc1cccs1)C1CCc2ccc(O)cc2C1` (racemic) [Example 7, (R,S)-trans-7-Hydroxy-2-[N-propynyl-N-ethyl(thienyl)-amino]tetralin], at human D3 receptor, the “D3 receptor activity compared with control, in words” value is on record as “about the same as the control”; the D2L/D3L is on record as 211; the “Differential activity (D2L/D3)” value is reported as “more than double the activity differential of the control”. The Ki on human D3 receptor (read-out: D3 HEK Cells [^3H]spiperone, Ki, cloned human D3 in HEK cells, 0.4 nM [3H]spiperone, 1 h, 30° C., no GTP, mean ± spread (n)) worked out at 0.008 ± 0.0003 µM. At human D2L receptor (read-out: D2L HEK Cells [^3H]spiperone, Ki, […] nM [3H]spiperone, 1 h, 30° C., no GTP, mean ± spread (n)), the Ki is 1.7 µM.

Compound `C#CCN(CCCC#N)C1CCc2ccc(O)cc2C1` (racemic) [Example 8, (R,S)-trans-7-Hydroxy-2-[N-propynyl-N-(3′-cyano-1′-propyl)amino]tetralin] displayed a Ki at human D3 receptor (cloned human D3 in HEK cells, 0.4 nM [3H]spiperone, 1 h, 30° C., no GTP, mean ± spread (n)) of 0.0235 ± 0.0047 µM. For the same compound, at human D3 receptor, the “D3 receptor activity compared with control, in words” value is given as “about the same as the control”; the D2L/D3L amounted to 353; the “Differential activity (D2L/D3)” value is on record as “more than double the activity differential of the control”. At human D2L receptor (setting [1]), this compound yielded a Ki of 8.31 µM.

The values above are taken from patent US7049337B2 (Wayne State University, priority 2000, dated 2006).
